According to patent US20070161648A1, “Substituted dihydro-isoindolones useful in treating kinase disorders” (priority 2005, published 2007):

How the values were obtained:
[1] = target: T1, VEGF-R2 kinase domain (Rattus norvegicus, UniProt O08775); test: VEGF-R2 screening assay (33P-ATP FlashPlate kinase assay); format: biochemical; conditions: 10 μM ATP
T1 construct: polyhistidine (N)
Description: (§1) 70 μL of the kinase reaction mixture was dispensed into the well of a streptavidin coated FlashPlate™ (Cat. # SMP103, NEN, Boston, Mass.).
(§2) Test compound stock in 100% DMSO (1 μL) was added to the wells resulting in a final concentration of 1% DMSO in the reaction with a 100 μL final reaction volume. Each enzyme was diluted in 50 mM Tris-HCl pH=8.0, 0.1% BSA and 30 μL was added to each well to initiate the reaction. The reaction was incubated for one hour at 30° C. At the end of the 1 hr incubation, the reaction was terminated by aspirating the mixture from the plate and washing the wells twice with PBS containing 100 mM EDTA. The biotinylated peptide substrate became immobilized on the Flashplate™ and the incorporation of ^33P-γ-ATP was measured by reading the plate on a scintillation counter. Inhibition of the enzymatic activity was measured by observing a reduced amount of ^33P-γ-ATP incorporated into the immobilized peptide.
The assay used 150 ng of the N-terminal biotinylated peptide biotin-[…]-amide (VEGF-R2) per well.
(§3) A maximum and minimum signal for the assay was determined on each plate. The percent inhibition of a test compound was calculated according to the formula: [formula]

[2] = target: T2, Aurora-A (Mus musculus, UniProt P97477); test: Aurora-A screening assay (33P-ATP FlashPlate kinase assay); format: biochemical, murine; conditions: 10 μM ATP
T2 construct: followed by the full length protein encoding the murine Aurora-A; polyhistidine (N); made in house; host or cells: Sf9 insect cells
T2 sequence (P97477 1-395): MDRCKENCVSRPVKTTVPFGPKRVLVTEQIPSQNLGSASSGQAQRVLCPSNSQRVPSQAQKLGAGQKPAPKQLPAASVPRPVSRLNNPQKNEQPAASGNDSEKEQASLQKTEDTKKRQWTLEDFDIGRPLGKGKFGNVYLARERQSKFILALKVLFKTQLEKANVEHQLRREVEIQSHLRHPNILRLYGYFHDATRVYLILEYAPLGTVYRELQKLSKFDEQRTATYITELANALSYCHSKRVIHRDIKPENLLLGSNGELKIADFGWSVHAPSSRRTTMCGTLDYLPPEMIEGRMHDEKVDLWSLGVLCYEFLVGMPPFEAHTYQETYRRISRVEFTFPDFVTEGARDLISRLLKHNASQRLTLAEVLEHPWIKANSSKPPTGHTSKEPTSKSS
Description: as §1, §2
Aurora-A is a fusion protein containing a polyhistidine tag at the N terminus followed by the full length protein encoding the murine Aurora-A (Accession number GB BC014711) expressed and purified from sf9 insect cells. The assay used 400 ng of the N-terminal biotinylated peptide biotin-[…]-amide (Aurora-A) per well.
as §3

[3] = test system: HeLa cervical adenocarcinoma; test: Cell proliferation inhibition assay (14C-thymidine incorporation), HeLa; format: cell-based; conditions: Homo sapiens
Excerpt: (§4) The ability of a test compound to inhibit unregulated cell proliferation may be determined by measuring incorporation of ^14C-labelled thymidine into newly synthesized DNA within cell lines derived from carcinomas originating from several tissues. Accordingly, the effect of a test compound on proliferation of cells with a variety of phenotypes may be determined.
(§5) Carcinoma cell lines used include the HeLa cervical adenocarcinoma from the American Type Culture Collection (ATCC Cat. #CCL2), A375 malignant melanoma (ATCC Cat. #CRL-1619) and HCT-116 colon carcinoma (ATCC Cat. #CCL-247).
(§6) The carcinoma cells are trypsinized and counted. The cells (3000-8000 count) are added to each well of a 96-well CytoStar tissue culture treated scintillating microplate (Amersham #RPNQO160) in complete medium (100 μL) and the plate is then incubated in complete medium for 24 hrs at 37° C. in an inert atmosphere containing 5% CO2.
(§7) Test compound (1 μL) in 100% DMSO is added to the plate test-wells with DMSO only added to control-wells. The plate is incubated in complete medium for a second 24 hr period at 37° C. in an atmosphere containing 5% CO2.
(§8) An aliquot of a solution of Methyl ^14C-thymidine (56 mC/mmol) (NEN #NEC568 or Amersham #CFA532) and complete medium (20 uL to provide 0.2 μCi/well) is then added to each well and the plate is incubated for a third 24 hr period at 37° C. in an atmosphere containing 5% CO2.
(§9) The plate contents are then discarded, the plate is washed twice with PBS (200 μL) and then PBS (200 μL) is added to each well. The plate is sealed and the degree of methyl ^14C-thymidine incorporation is quantified on a Packard Top Count.
(§10) For a series of test concentrations, the IC50 was derived by graphing percent inhibition against the log of the concentrations tested for a given compound with results shown in Table 2.

[4] = test system: A375 malignant melanoma; test: Cell proliferation inhibition assay (14C-thymidine incorporation), A375; format: cell-based; conditions: Homo sapiens, A-375
Excerpt: as §4, §5, §6, §7, §8, §9, §10

[5] = test system: HCT-116 colon carcinoma; test: Cell proliferation inhibition assay (14C-thymidine incorporation), HCT116; format: cell-based; conditions: Homo sapiens
Excerpt: as §4, §5, §6, §7, §8, §9, §10

T1 sequence (O08775 786-1343): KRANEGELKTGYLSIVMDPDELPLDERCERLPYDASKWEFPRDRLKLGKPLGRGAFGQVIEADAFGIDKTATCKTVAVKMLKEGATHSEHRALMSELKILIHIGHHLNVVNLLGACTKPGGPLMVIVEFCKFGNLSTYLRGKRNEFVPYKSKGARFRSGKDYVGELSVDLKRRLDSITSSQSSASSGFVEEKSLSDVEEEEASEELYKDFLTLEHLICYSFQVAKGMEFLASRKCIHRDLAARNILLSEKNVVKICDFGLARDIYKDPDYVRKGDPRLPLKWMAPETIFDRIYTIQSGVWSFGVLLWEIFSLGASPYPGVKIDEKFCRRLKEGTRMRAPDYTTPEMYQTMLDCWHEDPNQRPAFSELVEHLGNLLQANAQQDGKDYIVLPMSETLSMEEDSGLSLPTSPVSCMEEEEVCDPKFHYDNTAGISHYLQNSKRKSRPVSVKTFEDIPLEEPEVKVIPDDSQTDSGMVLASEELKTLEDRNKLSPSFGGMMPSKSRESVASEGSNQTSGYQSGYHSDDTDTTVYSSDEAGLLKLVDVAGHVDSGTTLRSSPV

`CCN1CCN(CCCOc2ccc3[nH]c(-c4cccc5c4C(=O)NC5)cc3c2)CC1` [Cpd 1, 7-{5-[3-(4-ethyl-piperazin-1-yl)-propoxy]-1H-indol-2-yl}-2,3-dihydro-isoindol-1-one] gave an IC50 [1] of 14 nM, an IC50 [2] of 44 nM and an IC50 [3] of 5310 nM. For the same compound, the IC50 [4] was 3900 nM and the IC50 [5] was 3850 nM.
In the case of `O=C1NCc2cccc(-c3cc4cc(OCCCN5CCC(CO)CC5)ccc4[nH]3)c21` [Cpd 2, 7-{5-[3-(4-hydroxymethyl-piperidin-1-yl)-propoxy]-1H-indol-2-yl}-2,3-dihydro-isoindol-1-one], the IC50 [1] is reported as 18 nM, the IC50 [2] is reported as 61 nM and the IC50 [3] is reported as 3350 nM. For the same compound, the IC50 [4] was 763 nM and the IC50 [5] was 2260 nM.
With `COc1ccc2[nH]c(-c3cccc4c3C(=O)NC4)cc2c1` [Cpd 3, 7-(5-methoxy-1H-indol-2-yl)-2,3-dihydro-isoindol-1-one] the IC50 [1] was 111 nM, the IC50 [2] was 70 nM and the IC50 [3] was > 100000 nM. For the same compound, the IC50 [4] was > 100000 nM and the IC50 [5] was > 100000 nM.
`O=C1NCc2cccc(-c3cc4cc(O)ccc4[nH]3)c21` [Cpd 4, 7-(5-hydroxy-1H-indol-2-yl)-2,3-dihydro-isoindol-1-one] showed an IC50 [1] of 119 nM, an IC50 [2] of 90 nM and an IC50 [3] of 3640 nM. It also gave an IC50 [4] of 4850 nM and an IC50 [5] of 6090 nM.
`O=C1NCc2cccc(-c3cc4cc(OCCCO)ccc4[nH]3)c21` [Cpd 5, 7-[5-(3-hydroxy-propoxy)-1H-indol-2-yl]-2,3-dihydro-isoindol-1-one] was tested, and the IC50 [1] was 30 nM, the IC50 [2] was 100 nM and the IC50 [3] was 15000 nM. It also gave an IC50 [4] of 4400 nM and an IC50 [5] of 6470 nM.
In the case of `COc1cc2c(c(-c3cc4cc(OC)ccc4[nH]3)c1)C(=O)NC2` [Cpd 6, 5-methoxy-7-(5-methoxy-1H-indol-2-yl)-2,3-dihydro-isoindol-1-one], the IC50 [1] is reported as 103 nM, the IC50 [2] is reported as 100 nM and the IC50 [3] is reported as 5080 nM. For the same compound, the IC50 [4] was 3020 nM and the IC50 [5] was 4280 nM.
Work on `O=C1NCc2cccc(-c3cc4ccccc4[nH]3)c21` [Cpd 7, 7-(1H-indol-2-yl)-2,3-dihydro-isoindol-1-one] yielded an IC50 [1] of 144 nM, an IC50 [2] of 100 nM and an IC50 [3] of 3710 nM. The IC50 [4] was 5560 nM and the IC50 [5] was 5040 nM.
`O=C1NCc2cccc(-c3cc4cc(OCCN5CCOCC5)ccc4[nH]3)c21` [Cpd 8, 7-[5-(2-morpholin-4-yl-ethoxy)-1H-indol-2-yl]-2,3-dihydro-isoindol-1-one] was tested, and the IC50 [1] was 74 nM, the IC50 [2] was 135 nM and the IC50 [3] was 5810 nM. The IC50 [4] was 2700 nM and the IC50 [5] was 5740 nM.
For `O=C1NCc2cccc(-c3cc4cc(OCCCN5CCCCC5)ccc4[nH]3)c21` [Cpd 9, 7-[5-(3-piperidin-1-yl-propoxy)-1H-indol-2-yl]-2,3-dihydro-isoindol-1-one], the IC50 [1] was 65 nM, the IC50 [2] was 179 nM and the IC50 [3] was 6060 nM. The IC50 [4] was 4030 nM and the IC50 [5] was 7770 nM.
Work on `O=C1NCc2cccc(-c3cc4cc(OCCN5CCCCC5)ccc4[nH]3)c21` [Cpd 10, 7-[5-(2-piperidin-1-yl-ethoxy)-1H-indol-2-yl]-2,3-dihydro-isoindol-1-one] yielded an IC50 [1] of 56 nM, an IC50 [2] of 200 nM and an IC50 [3] of 4630 nM. For the same compound, the IC50 [4] was 437 nM and the IC50 [5] was 2340 nM.
`COc1ccc2[nH]c(-c3cccc4c3C(=O)NC4)nc2c1` [Cpd 11, 7-(5-methoxy-1H-benzoimidazol-2-yl)-2,3-dihydro-isoindol-1-one] was tested, and the IC50 [1] was 142 nM, the IC50 [2] was 205 nM and the IC50 [3] was > 10000 nM. The IC50 [4] was > 10000 nM and the IC50 [5] was > 10000 nM.
`O=C1NCc2cccc(-c3ccc[nH]3)c21` [Cpd 12, 7-(1H-pyrrol-2-yl)-2,3-dihydro-isoindol-1-one] was tested, and the IC50 [1] was 1100 nM, the IC50 [2] was 338 nM and the IC50 [3] was 52600 nM. For the same compound, the IC50 [4] was > 10000 nM and the IC50 [5] was > 100000 nM.
